Key:
Assay type in all cases: biochemical, E. coli K12
[1] = target: T1, L-aspartate-α-decarboxylase (Escherichia coli, UniProt P0A790); assay: Re-treatment of Example 3 supernatant fluid with fresh cells (Example 4); conditions: 37° C.
T1 construct: expressed in transfected cells; host or cells: E. coli W3110 transformed with pIF309 = strain NS3291 (ATCC 98675), whole cells
From the text: (§1) In all of the Examples herein, D- and L-aspartic acid isomers were quantified by HPLC using the following precolumn derivatization method. Aspartic acid was converted into diastereomers using ortho-phthalaldehyde and N-acetyl-L-cysteine. Separation of the diastereomers was achieved on a Supelcosil™ LC-18DB, 3μ, 150×4.6 mm column using a mobile phase of A: 20% methanol/80% triethylamine phosphate and B: methanol, and a step gradient as follows: […]
In this Example the supernatant fluid from Example 3 was re-treated with fresh cells. The reaction from Example 3, stopped at 68 hours, was centrifuged for 45 minutes in a GS-3 rotor at 7000 rpm. The supernatant fluid, 990 ml, was separated from the cells. 963 ml of this supernatant fluid was mixed with 137 ml fresh cells and placed in a 2 L fermentor. Bioconversion took place with mixing at 300 rpm, without automatic pH control and at a temperature of 37° C. Samples, approximately 1 ml, were removed over time and analyzed as in Example 3.

[2] = target: T1, L-aspartate-α-decarboxylase; assay: Temperature study, 45° C. (Example 9); conditions: for concentration in supernatant fluid / percent remaining: 1.0M, 100 g/l cells
Method: 133.1 g (1 mol) of D/L-aspartic acid was dissolved in deionized H2 O and the pH was adjusted to 7.0 with 10N NaOH, approximately 100 ml. Cells, freshly thawed from -80° C., were added to achieve a final concentration of 100 g/l. Three 2 L fermentors were each charged with 963 ml of substrate solution and 137 ml of cells and then heated to 37° C. and 45° C. while mixing at 300 rpm or heated to 50° C. while mixing at 450 rpm. Samples, approximately 1 ml, were removed over time and pH adjusted to 7.0 with either NaOH or HCl. After centrifugation to remove cells, the supernatant fluid was analyzed for both D- and L-aspartic acid.

[3] = target: T1, L-aspartate-α-decarboxylase; assay: Re-use of cells on fresh 0.5M D/L-aspartate (Example 5); conditions: re-used cells, 37° C.
Method: Cells that had already been used in Example 3 were put in fresh substrate to determine if they were still active.
Fresh D/L-aspartate substrate was prepared as previously described in Example 3. The cells from Example 3 were resuspended in deionized H2 O and made up to 100 ml. The pH of the substrate (900 ml, 0.5M D/L-Asp) was adjusted to 7.0 with NaOH. After placing in the 2 L fermentor, the cells (100 ml) were added. There was no pH control and deionized H2 O was used for substrate. Samples were removed over time, centrifuged and the supernatant fluid diluted appropriately for both D- and L-aspartic acid determination. Temperature was set at 37° C.

[4] = target: T1, L-aspartate-α-decarboxylase; assay: Bioconversion of 0.5M D/L-aspartate with NS3291 cells (Example 3)
Method: 66.5 g (0.5M) D/L-aspartate (Sigma, A-9006) was weighed into a 2 L beaker and the pH adjusted to 7.0 with 10N NaOH. The volume was brought to 963 ml with deionized H2 O. 137 ml of cells (NS 3291, described above) were added at a packed cell volume ("PCV") of 7.31 g/10 ml cells resulting in a final volume of 1.1 L. Samples (approximately 1 ml each) were removed over time, centrifuged and the supernatant fluid was analyzed by HPLC for D- and L-aspartic acid content.
as §1
Retention times were 4.19 minutes and 4.54 minutes for D-aspartic acid and L-aspartic acid, respectively.
Samples from bioconversions were centrifuged to remove cells in a microcentrifuge and the supernatant fluid diluted appropriately such that the value determined from the HPLC fell within the linear region of the standard curve. These dilutions were usually between 1:100 and 1:200, made with deionized water.

T1 sequence (P0A790 25-126): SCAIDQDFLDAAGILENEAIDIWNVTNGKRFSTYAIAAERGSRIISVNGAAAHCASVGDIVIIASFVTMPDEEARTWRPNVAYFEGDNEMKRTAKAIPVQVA
T1 sequence (P0A790 1-24): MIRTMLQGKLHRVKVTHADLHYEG

N[C@@H](CC(=O)O)C(=O)O [L-Asp, L-aspartic acid]
concentration in supernatant fluid ([1]; 0.0000 hr): 0.43 mg/mL
concentration in supernatant fluid ([1]; 0.0000 hr, listed as L-aspartic acid): 0.43 mg/mL
concentration in supernatant fluid ([1]; 2.7500 hr): 0.11 mg/mL
percent remaining ([1]; 2.7500 hr): 25.581%
concentration in supernatant fluid ([1]; 13.500 hr): 0.09 mg/mL
percent remaining ([1]; 13.500 hr): 20.930%
concentration in supernatant fluid ([1]; 15.000 hr): 0.08 mg/mL
percent remaining ([1]; 15.000 hr): 18.605%
concentration in supernatant fluid ([1]; 19.500 hr): 0.09 mg/mL
percent remaining ([1]; 19.500 hr): 20.930%
concentration in supernatant fluid ([1]; 23.500 hr): 0.07 mg/mL
percent remaining ([1]; 23.500 hr): 16.279%
concentration in supernatant fluid ([1]; 23.500 hr, listed as L-aspartic acid): 0.07 mg/mL
concentration in supernatant fluid ([1]; 39.000 hr): 0.1 mg/mL
percent remaining ([1]; 39.000 hr): 23.256%
concentration in supernatant fluid ([1]; 47.000 hr): 0.16 mg/mL
percent remaining ([1]; 47.000 hr): 37.209%
concentration in supernatant fluid ([1]; 51.750 hr): 0.23 mg/mL
percent remaining ([1]; 51.750 hr): 53.488%
concentration in supernatant fluid ([1]; 68.500 hr): 0.55 mg/mL
percent remaining ([1]; 68.500 hr): 127.91%
concentration in supernatant fluid ([1]; 68.500 hr, listed as L-aspartic acid): 0.55 mg/mL
concentration in supernatant fluid ([2]; 0.000 hr): 54.410 mg/mL
percent remaining ([2]; 2.5000 hr): 92.079%
concentration in supernatant fluid ([2]; 4.0000 hr): 47.110 mg/mL
percent remaining ([2]; 4.0000 hr): 86.583%
concentration in supernatant fluid ([2]; 6.0000 hr): 43.130 mg/mL
percent remaining ([2]; 6.0000 hr): 79.269%
concentration in supernatant fluid ([2]; 8.0000 hr): 39.310 mg/mL
percent remaining ([2]; 8.0000 hr): 72.248%
concentration in supernatant fluid ([2]; 10.000 hr): 36.800 mg/mL
percent remaining ([2]; 10.000 hr): 67.635%
concentration in supernatant fluid ([2]; 12.000 hr): 34.540 mg/mL
percent remaining ([2]; 12.000 hr): 63.481%
concentration in supernatant fluid ([2]; 20.000 hr): 24.690 mg/mL
percent remaining ([2]; 20.000 hr): 45.378%
concentration in supernatant fluid ([2]; 24.000 hr): 23.210 mg/mL
percent remaining ([2]; 24.000 hr): 42.658%
concentration in supernatant fluid ([2]; 29.000 hr): 21.700 mg/mL
percent remaining ([2]; 29.000 hr): 39.882%
concentration in supernatant fluid ([2]; 34.000 hr): 19.310 mg/mL
percent remaining ([2]; 34.000 hr): 35.490%
concentration in supernatant fluid ([2]; 44.000 hr): 15.800 mg/mL
percent remaining ([2]; 44.000 hr): 29.039%
concentration in supernatant fluid ([2]; 48.000 hr): 16.700 mg/mL
percent remaining ([2]; 48.000 hr): 30.822%
concentration in supernatant fluid ([2]; 68.000 hr): 16.050 mg/mL
percent remaining ([2]; 68.000 hr): 29.498%
concentration in supernatant fluid ([2]; 92.000 hr): 13.370 mg/mL
percent remaining ([2]; 92.000 hr): 24.573%
concentration in supernatant fluid ([3]; 0.0000 hr): 24.700 mg/mL
concentration in supernatant fluid ([3]; 6.2500 hr): 17.130 mg/mL
percent remaining ([3]; 6.2500 hr): 69.352%
concentration in supernatant fluid ([3]; 15.250 hr): 15.620 mg/mL
percent remaining ([3]; 15.250 hr): 63.239%
concentration in supernatant fluid ([3]; 25.750 hr): 10.870 mg/mL
percent remaining ([3]; 25.750 hr): 44.008%
concentration in supernatant fluid ([3]; 28.000 hr): 9.5300 mg/mL
percent remaining ([3]; 28.000 hr): 38.583%
concentration in supernatant fluid ([3]; 44.250 hr): 4.4200 mg/mL
percent remaining ([3]; 44.250 hr): 17.895%
concentration in supernatant fluid ([3]; 63.500 hr): 0.98 mg/mL
percent remaining ([3]; 63.500 hr): 3.9676%
concentration in supernatant fluid ([3]; 65.000 hr): 0.95 mg/mL
percent remaining ([3]; 65.000 hr): 3.8462%
percent remaining ([4]; 5.5000 hr): 41.739%
percent remaining ([4]; 24.500 hr): 0.5888%
percent remaining ([4]; 26.500 hr): 0.4157%
percent remaining ([4]; 32.500 hr): 0.2078%
percent remaining ([4]; 47.500 hr): 0.1039%
percent remaining ([4]; 52.000 hr): 0.06928%
percent remaining ([4]; 68.000 hr): 1.4894%

N[C@H](CC(=O)O)C(=O)O [D-Asp, D-aspartic acid]
concentration in supernatant fluid ([1]; 0.0000 hr): 21.450 mg/mL
concentration in supernatant fluid ([1]; 2.7500 hr): 21.350 mg/mL
percent remaining ([1]; 2.7500 hr): 99.534%
concentration in supernatant fluid ([1]; 13.500 hr): 21.190 mg/mL
percent remaining ([1]; 13.500 hr): 98.788%
concentration in supernatant fluid ([1]; 15.000 hr): 20.770 mg/mL
percent remaining ([1]; 15.000 hr): 96.830%
concentration in supernatant fluid ([1]; 19.500 hr): 21.480 mg/mL
percent remaining ([1]; 19.500 hr): 100.14%
concentration in supernatant fluid ([1]; 23.500 hr): 20.880 mg/mL
percent remaining ([1]; 23.500 hr): 97.343%
concentration in supernatant fluid ([1]; 39.000 hr): 19.080 mg/mL
percent remaining ([1]; 39.000 hr): 88.951%
concentration in supernatant fluid ([1]; 47.000 hr): 17.280 mg/mL
percent remaining ([1]; 47.000 hr): 80.559%
concentration in supernatant fluid ([1]; 51.750 hr): 17.010 mg/mL
percent remaining ([1]; 51.750 hr): 79.301%
concentration in supernatant fluid ([1]; 68.500 hr): 14.900 mg/mL
percent remaining ([1]; 68.500 hr): 69.464%
stability of the isomer [2]: stable
concentration in supernatant fluid ([2]; 0.000 hr): 55.280 mg/mL
concentration in supernatant fluid ([2]; 2.5000 hr): 54.820 mg/mL
percent remaining ([2]; 2.5000 hr): 99.168%
concentration in supernatant fluid ([2]; 4.0000 hr): 53.960 mg/mL
percent remaining ([2]; 4.0000 hr): 97.612%
concentration in supernatant fluid ([2]; 6.0000 hr): 53.460 mg/mL
percent remaining ([2]; 6.0000 hr): 96.708%
concentration in supernatant fluid ([2]; 8.0000 hr): 54.040 mg/mL
percent remaining ([2]; 8.0000 hr): 97.757%
concentration in supernatant fluid ([2]; 10.000 hr): 54.870 mg/mL
percent remaining ([2]; 10.000 hr): 99.258%
concentration in supernatant fluid ([2]; 12.000 hr): 54.060 mg/mL
percent remaining ([2]; 12.000 hr): 97.793%
concentration in supernatant fluid ([2]; 20.000 hr): 52.360 mg/mL
percent remaining ([2]; 20.000 hr): 94.718%
concentration in supernatant fluid ([2]; 24.000 hr): 51.310 mg/mL
percent remaining ([2]; 24.000 hr): 92.818%
concentration in supernatant fluid ([2]; 29.000 hr): 53.830 mg/mL
percent remaining ([2]; 29.000 hr): 97.377%
concentration in supernatant fluid ([2]; 34.000 hr): 52.880 mg/mL
percent remaining ([2]; 34.000 hr): 95.658%
concentration in supernatant fluid ([2]; 44.000 hr): 53.640 mg/mL
percent remaining ([2]; 44.000 hr): 97.033%
concentration in supernatant fluid ([2]; 48.000 hr): 52.730 mg/mL
percent remaining ([2]; 48.000 hr): 95.387%
concentration in supernatant fluid ([2]; 68.000 hr): 53.560 mg/mL
percent remaining ([2]; 68.000 hr): 96.889%
concentration in supernatant fluid ([2]; 92.000 hr): 53.560 mg/mL
percent remaining ([2]; 92.000 hr): 96.889%
concentration in supernatant fluid ([3]; 0.0000 hr): 30.850 mg/mL
concentration in supernatant fluid ([3]; 6.2500 hr): 30.820 mg/mL
percent remaining ([3]; 6.2500 hr): 99.903%
concentration in supernatant fluid ([3]; 15.250 hr): 29.870 mg/mL
percent remaining ([3]; 15.250 hr): 96.823%
concentration in supernatant fluid ([3]; 25.750 hr): 28.250 mg/mL
percent remaining ([3]; 25.750 hr): 91.572%
concentration in supernatant fluid ([3]; 28.000 hr): 27.980 mg/mL
percent remaining ([3]; 28.000 hr): 90.697%
concentration in supernatant fluid ([3]; 44.250 hr): 25.000 mg/mL
percent remaining ([3]; 44.250 hr): 81.037%
concentration in supernatant fluid ([3]; 63.500 hr): 21.760 mg/mL
percent remaining ([3]; 63.500 hr): 70.535%
concentration in supernatant fluid ([3]; 65.000 hr): 20.340 mg/mL
percent remaining ([3]; 65.000 hr): 65.932%
percent remaining ([4]; 5.5000 hr): 100.07%
percent remaining ([4]; 24.500 hr): 99.829%
percent remaining ([4]; 26.500 hr): 94.676%
percent remaining ([4]; 32.500 hr): 95.870%
percent remaining ([4]; 47.500 hr): 95.768%
percent remaining ([4]; 52.000 hr): 96.894%
percent remaining ([4]; 68.000 hr): 87.099%

From patent publication US5834259A, “Process and composition for preparing D-aspartic acid” (Monsanto Company, priority 1996, dated 1998)
